Target: human prolyl oligopeptidase (Homo sapiens (Human), UniProt P48147)
Assay: POP inhibition assay (Z-G-P-AMC substrate, fluorimetric)
Type: biochemical
Details: 100 mM Na/K phosphate buffer, pH 8.0, hPOP 20 to 60 nM, Z-G-P-AMC, 1 hour at 37° C.; read-out: IC50, inhibition of human prolyl oligopeptidase
Procedure: Expression and Purification of Prolyl Oligopeptidase (POP)
POP was obtained by expression in E. coli and affinity purification using a His tail fusion according to a literature procedure (Tarragó T et al., ChemBioChem 2006; 7:827-33) summarized below:
hPOP expression: E. coli BL21 competent cells were transformed with pETM10 hPOP. To induce expression, a pre-culture of LB medium (50 mL) containing kanamycin (50 μg/mL) was inoculated with one colony and was grown overnight at 37° C. Next day, two cultures of LB medium (500 mL) were inoculated with the overnight culture (10 mL). The inoculated cultures were grown at 37° C. and 220 rpm until the OD595 was 1.2 (2.5-3 hours). IPTG was then added (final concentration of 1 mM) and induction was performed overnight at 25° C. Cells were harvested (3500 g, 15 min, 4° C.) and the pellet was suspended in suspension buffer (50 mL) [Tris-HCl pH 8 (50 mM), NaCl (300 mM), imidazole (1 mM)] and sonicated with use of four cycles (each consisting of 15 sec of sonication and 15 sec of rest) at an intensity of 50% and 0.5 pulses, the sample being kept on ice. After sonication, the sample was centrifuged (40 000 g, 30 min, 4° C.) and the supernatant was used immediately for POP purification. An ÁKTA explorer FPLC system was used for purification. The supernatant was applied at a flow of 1 mL/min to a HiTrapQuelating column (5 mL) previously equilibrated with 5 column volumes of suspension buffer. The column was washed with suspension buffer until the absorbance at 280 nm returned to basal level. The column was then rinsed with 5 volumes of washing buffer (50 mM Tris-HCl, pH 8, 300 mM NaCl, 30 mM imidazole). The elution was performed with 4 volumes of elution buffer (50 mM Tris-HCl, pH 8, 300 mM NaCl, 500 mM imidazole). Fractions (4 mL) were collected during the entire elution. POP activity was checked in all fractions and positive ones were analyzed by SDS-PAGE and stained with Biosafe Comassie Stain G-250. Positive fractions were collected and desalted by use of a HiPrep 26/10 Desalting column with Tris-HCl (50 mM, pH 8) as buffer. Recombinant hPOP was quantified with the Bio-Rad Protein Assay with BSA as standard. Aliquots of the recombinant enzyme were prepared and immediately frozen with liquid nitrogen and stored at −80° C.
POP activity was determined following the method described by Toide et al (Toide K et al., J. Pharmacol. Exp. Ther. 1995; 274:1370-8), using Z-G-P-AMC (N-benzyloxycarbonyl-Gly-Pro-methylcoumarinyl-7-amide) as POP substrate. The reactions were performed in 96-well microtiter plates, which allowed simultaneous monitoring of multiple reactions. For each reaction, activity buffer (134 μl, 100 mM Na/K phosphate buffer, pH 8.0) was pre-incubated for 15 min at 37° C. with hPOP (ranging from 20 to 60 nM, depending on the activity of the hPOP batch) and the corresponding new compound solution (3 μl). A stock solution of new compound was prepared in DMSO (100 mM), and dilutions were prepared from this stock solution with DMSO. Alternatively, the reactions were performed using another activity buffer (141 μL, 100 mM Tris-acetate, […], 1 mM DTT, pH 7.3), pre-incubating with hPOP (10 nM) and the corresponding new compound solution (3 μl) (Conditions B).
After preincubation, Z-G-P-AMC (10 μl, 3 mM in 40% 1,4-dioxane) was added (3 μl, 1.5 mM in 40% of 1,4-dioxane, in Conditions B), and the reaction was incubated for 1 hour at 37° C. The reaction was stopped by adding sodium acetate (150 μl, 1 M, pH 4) and the formation of AMC was measured fluorimetrically. The excitation and emission wavelengths were 360/40 and 485/20 nm, respectively.
Several concentration points (ranging from 25 μM to 400 μM) were measured for each compound. The inhibitory activity on prolyl oligopeptidase was calculated according to eq 1. For each new compound, the fluorescence in the presence (a) and in the absence of hPOP (b) was measured. […]

Chain of human prolyl oligopeptidase (P48147 whole entry): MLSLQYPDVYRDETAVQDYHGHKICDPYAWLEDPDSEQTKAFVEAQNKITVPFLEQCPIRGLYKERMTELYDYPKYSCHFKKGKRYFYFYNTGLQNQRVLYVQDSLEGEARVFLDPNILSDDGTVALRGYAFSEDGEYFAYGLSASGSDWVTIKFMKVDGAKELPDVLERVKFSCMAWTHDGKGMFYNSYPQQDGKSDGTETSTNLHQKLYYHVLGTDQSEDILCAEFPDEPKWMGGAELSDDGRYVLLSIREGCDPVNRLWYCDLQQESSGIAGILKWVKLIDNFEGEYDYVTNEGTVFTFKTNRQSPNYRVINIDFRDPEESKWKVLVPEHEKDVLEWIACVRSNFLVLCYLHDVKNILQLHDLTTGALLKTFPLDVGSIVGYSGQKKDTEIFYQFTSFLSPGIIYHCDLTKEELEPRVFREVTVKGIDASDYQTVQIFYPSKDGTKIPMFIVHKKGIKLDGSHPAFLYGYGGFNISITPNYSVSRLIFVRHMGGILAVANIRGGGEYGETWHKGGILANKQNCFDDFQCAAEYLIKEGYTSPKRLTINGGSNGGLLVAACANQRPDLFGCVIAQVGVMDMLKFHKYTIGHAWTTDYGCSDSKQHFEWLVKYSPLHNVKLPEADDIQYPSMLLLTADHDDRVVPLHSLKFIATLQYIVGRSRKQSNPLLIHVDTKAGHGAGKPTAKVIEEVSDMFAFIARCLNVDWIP

IC50: 48.7 nM
SMILES: COc1cc(C(=O)N2CC(F)(F)C[C@H]2C(=O)N2CCC[C@H]2C#N)cc(OC)c1OCc1ccccc1 [Example 4, (S)-1-((2S)-1-(4-(benzyloxy)-3,5-dimethoxybenzoyl)-4,4-difluoropyrrolidine-2-carbonyl)pyrrolidine-2-carbonitrile]
